Assay results taken from PubChem BioAssay (NCI).
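48-hour exposure; five concentrations; linearly interpolated endpoints. GI50 marks 50% less growth. At the TGI there is no net growth.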

Legend:
Assay in all cases: NCI tumour cell line growth inhibition, 48 h
A498 renal = tested on: A498 renal
NCI-H522 lung = tested on: NCI-H522 lung
HCT-15 colon = tested on: HCT-15 colon
PC-3 prostate = tested on: PC-3 prostate
U251 CNS = tested on: U251 CNS
SK-MEL-2 melanoma = tested on: SK-MEL-2 melanoma
SK-OV-3 ovarian = tested on: SK-OV-3 ovarian
NCI-H460 lung = tested on: NCI-H460 lung
LOX IMVI melanoma = tested on: LOX IMVI melanoma
SR leukemia = tested on: SR leukemia

## Cc1ccc(NC(=S)NNC(=S)Nc2ccc(C)cc2)cc1
A498 renal
  GI50: 2.96 µM
  TGI: > 100 µM
NCI-H522 lung
  GI50: 2.03 µM
  TGI: 5.83 µM
HCT-15 colon
  GI50: 5.15 µM
  TGI: > 100 µM
PC-3 prostate
  GI50: 10.2 µM
  TGI: > 100 µM
U251 CNS
  GI50: 5.16 µM
  TGI: > 100 µM
SK-MEL-2 melanoma
  GI50: 2.66 µM
  TGI: 8.68 µM
SK-OV-3 ovarian
  GI50: 17.3 µM
  TGI: > 100 µM
NCI-H460 lung
  GI50: 3.89 µM
  TGI: > 100 µM
LOX IMVI melanoma
  GI50: 6.13 µM
  TGI: > 100 µM

## COC(=O)C1c2cc3c(c(O)c2CCC1(C)O)C(=O)c1c(O)cc2c(c1C3=O)OC1OC2(C)C(O)C(N(C)C)C1O (stereo not given)
NCI-H522 lung
  TGI: 2.81 µM
HCT-15 colon
  TGI: 1.7 µM
PC-3 prostate
  TGI: 1.79 µM
U251 CNS
  TGI: 1.71 µM
SK-MEL-2 melanoma
  TGI: 18.8 µM
SK-OV-3 ovarian
  TGI: 15 µM
NCI-H460 lung
  TGI: 2.11 µM
LOX IMVI melanoma
  TGI: 1.4 µM

## CC1(C)CC[C@]23CC[C@]4(C)[C@H](CC[C@@H]5[C@@]6(C)CCCNC(C)(C)[C@@H]6CC[C@]54C)[C@H]2[C@H]1OC3
A498 renal
  GI50: 1.68 µM
  TGI: 3.67 µM
NCI-H522 lung
  GI50: 1.9 µM
  TGI: 3.77 µM
HCT-15 colon
  GI50: 1.31 µM
  TGI: 2.68 µM
PC-3 prostate
  GI50: 1.61 µM
  TGI: 3.17 µM
SR leukemia
  GI50: 1.49 µM
  TGI: 4.12 µM
U251 CNS
  GI50: 1.74 µM
  TGI: 3.23 µM
SK-MEL-2 melanoma
  GI50: 1.95 µM
  TGI: 4.09 µM
SK-OV-3 ovarian
  GI50: 2.73 µM
  TGI: 7.93 µM
NCI-H460 lung
  GI50: 0.646 µM
  TGI: 2.2 µM

## CCN(N=O)C1C2(CCCC2)NC(=O)C12CCCC2 (stereo not given)
A498 renal
  TGI: > 100 µM
HCT-15 colon
  TGI: > 100 µM
SR leukemia
  TGI: > 100 µM
U251 CNS
  TGI: > 100 µM
SK-OV-3 ovarian
  TGI: > 100 µM
NCI-H460 lung
  TGI: > 100 µM
LOX IMVI melanoma
  TGI: > 100 µM

## CCOC(=O)C1=C(C)NC2SC(=O)/C(=C\c3cccc(Cl)c3)N2C1c1ccccc1 (stereo not given)
A498 renal
  GI50: > 100 µM
  TGI: > 100 µM
NCI-H522 lung
  GI50: > 100 µM
  TGI: > 100 µM
HCT-15 colon
  GI50: > 100 µM
  TGI: > 100 µM
PC-3 prostate
  GI50: > 100 µM
  TGI: > 100 µM
U251 CNS
  GI50: > 100 µM
  TGI: > 100 µM
SK-MEL-2 melanoma
  GI50: > 100 µM
  TGI: > 100 µM
SK-OV-3 ovarian
  GI50: > 100 µM
  TGI: > 100 µM
NCI-H460 lung
  GI50: > 100 µM
  TGI: > 100 µM
LOX IMVI melanoma
  GI50: > 100 µM
  TGI: > 100 µM

## CC(=O)OCc1nnn2c1C(OC(C)=O)CC2 (stereo not given)
NCI-H522 lung
  TGI: > 100 µM
HCT-15 colon
  TGI: > 100 µM
SR leukemia
  TGI: > 100 µM
U251 CNS
  TGI: > 100 µM
SK-MEL-2 melanoma
  TGI: > 100 µM
SK-OV-3 ovarian
  TGI: > 100 µM
NCI-H460 lung
  TGI: > 100 µM

## COc1ccc(-c2cc(=O)c3c(OC)c4ccoc4c(/C=C/C=O)c3o2)cc1
A498 renal
  GI50: 17.2 µM
  TGI: 71.9 µM
NCI-H522 lung
  GI50: 34.6 µM
  TGI: > 100 µM
HCT-15 colon
  GI50: 1.73 µM
  TGI: 5.92 µM
PC-3 prostate
  GI50: 2.58 µM
  TGI: 16.5 µM
U251 CNS
  GI50: 2.53 µM
  TGI: 10.3 µM
SK-MEL-2 melanoma
  GI50: 9.06 µM
  TGI: 84.6 µM
SK-OV-3 ovarian
  GI50: 4.73 µM
  TGI: 23 µM
NCI-H460 lung
  GI50: 4.7 µM
  TGI: 39.4 µM
LOX IMVI melanoma
  GI50: 1.08 µM
  TGI: 2.34 µM

## CCOC(=O)CCc1c(C)c2c(OC)cc(OC)cc2oc1=O
NCI-H522 lung
  TGI: > 100 µM
U251 CNS
  TGI: > 100 µM
SK-MEL-2 melanoma
  TGI: > 100 µM
NCI-H460 lung
  TGI: > 100 µM
LOX IMVI melanoma
  TGI: > 100 µM

## Cc1[nH]c(=O)n2c(C)nnc2c1C(=O)O
NCI-H522 lung
  TGI: > 100 µM
HCT-15 colon
  TGI: > 100 µM
SR leukemia
  TGI: > 100 µM
U251 CNS
  TGI: > 100 µM
SK-MEL-2 melanoma
  TGI: > 100 µM
SK-OV-3 ovarian
  TGI: > 100 µM
NCI-H460 lung
  TGI: > 100 µM
LOX IMVI melanoma
  TGI: > 100 µM

## COc1ccc(C2=C(c3ccccc3)C(=O)N3CCCC3C2)cc1 (stereo not given)
A498 renal
  GI50: > 100 µM
  TGI: > 100 µM
NCI-H522 lung
  GI50: 0.821 µM
  TGI: > 100 µM
HCT-15 colon
  GI50: < 0.0249 µM
  TGI: > 100 µM
PC-3 prostate
  GI50: 1.48 µM
  TGI: > 100 µM
U251 CNS
  GI50: 0.336 µM
  TGI: > 100 µM
SK-MEL-2 melanoma
  GI50: 23.8 µM
  TGI: > 100 µM
SK-OV-3 ovarian
  GI50: > 100 µM
  TGI: > 100 µM
NCI-H460 lung
  TGI: > 62.9 µM
LOX IMVI melanoma
  GI50: 0.115 µM
  TGI: > 100 µM

## Cc1ccc(C2=NN(c3ccc(S(=O)(=O)NC(=O)NCc4ccccc4)cc3)C(c3ccc(N(C)C)cc3)C2)c(C)c1 (stereo not given)
A498 renal
  GI50: 3.08 µM
  TGI: 12.5 µM
NCI-H522 lung
  GI50: 4.48 µM
  TGI: 28.7 µM
HCT-15 colon
  GI50: 3.27 µM
  TGI: > 100 µM
PC-3 prostate
  GI50: 3.33 µM
  TGI: 42 µM
U251 CNS
  GI50: 3.53 µM
  TGI: 16 µM
SK-MEL-2 melanoma
  GI50: 3.32 µM
  TGI: 8.85 µM
SK-OV-3 ovarian
  GI50: 8.43 µM
  TGI: > 100 µM
NCI-H460 lung
  GI50: 3.33 µM
  TGI: 10.4 µM
LOX IMVI melanoma
  GI50: 4.08 µM
  TGI: 14.1 µM

## CCOC(=O)C(C(=O)OCC)=C1C=C(c2ccccc2)c2ccccc21
A498 renal
  TGI: 62.9 µM
HCT-15 colon
  TGI: > 100 µM
U251 CNS
  TGI: > 100 µM
SK-MEL-2 melanoma
  TGI: > 100 µM
SK-OV-3 ovarian
  TGI: > 100 µM
NCI-H460 lung
  TGI: > 100 µM
LOX IMVI melanoma
  TGI: > 100 µM

## CC(C)[C@@]12C[C@@H](OC(=O)COC(=O)c3ccccc3)[C@@](C)(O1)[C@@H]1CC[C@@H](C)[C@H]1[C@@H]2OC(=O)/C=C/c1ccccc1
A498 renal
  GI50: 0.153 µM
  TGI: 0.529 µM
NCI-H522 lung
  GI50: > 100 µM
  TGI: > 100 µM
HCT-15 colon
  GI50: > 89 µM
  TGI: > 100 µM
PC-3 prostate
  GI50: 22.7 µM
  TGI: > 100 µM
U251 CNS
  GI50: > 100 µM
  TGI: > 100 µM
SK-MEL-2 melanoma
  GI50: > 100 µM
  TGI: > 100 µM
SK-OV-3 ovarian
  GI50: > 100 µM
  TGI: > 100 µM
NCI-H460 lung
  GI50: > 100 µM
  TGI: > 100 µM
LOX IMVI melanoma
  GI50: > 63.4 µM
  TGI: > 100 µM

## CC(=O)[O-].CC(=O)[O-].O=C([CH-]C(=O)c1ccccc1)c1ccccc1.[Nd+3].[OH3+]
A498 renal
  GI50: 43.1 µM
  TGI: > 100 µM
NCI-H522 lung
  GI50: 13.2 µM
  TGI: 43.6 µM
HCT-15 colon
  GI50: 19.4 µM
  TGI: > 100 µM
U251 CNS
  GI50: 16.7 µM
  TGI: > 100 µM
SK-MEL-2 melanoma
  GI50: 16.4 µM
  TGI: 50.7 µM
SK-OV-3 ovarian
  GI50: 27 µM
  TGI: 90.5 µM
NCI-H460 lung
  GI50: 16.7 µM
  TGI: > 100 µM
LOX IMVI melanoma
  GI50: 22.4 µM
  TGI: > 100 µM

## C[C@@H](NC1CCCC[C@@H]1O)c1ccccc1 (stereo not given in full)
HCT-15 colon
  TGI: > 100 µM
U251 CNS
  TGI: > 100 µM
SK-MEL-2 melanoma
  TGI: > 100 µM
SK-OV-3 ovarian
  TGI: > 100 µM
NCI-H460 lung
  TGI: > 100 µM
LOX IMVI melanoma
  TGI: > 100 µM

## C[n+]1cccc(NC(=O)c2ccc3ccc4ccc(C(=O)Nc5ccc[n+](C)c5)nc4c3n2)c1
A498 renal
  GI50: 7.14 µM
  TGI: > 28 µM
NCI-H522 lung
  GI50: 0.645 µM
  TGI: 23 µM
HCT-15 colon
  GI50: 3.37 µM
  TGI: > 100 µM
PC-3 prostate
  GI50: 6.21 µM
  TGI: > 100 µM
U251 CNS
  GI50: 2.23 µM
  TGI: > 100 µM
SK-MEL-2 melanoma
  GI50: 6.71 µM
  TGI: > 100 µM
SK-OV-3 ovarian
  GI50: 1.97 µM
  TGI: 12.5 µM
NCI-H460 lung
  GI50: 0.149 µM
  TGI: 3.42 µM
LOX IMVI melanoma
  GI50: 5.6 µM
  TGI: > 100 µM

## CSC1=CC(=O)c2ccccc2C1=O
NCI-H522 lung
  GI50: 2.02 µM
  TGI: 4.16 µM
HCT-15 colon
  GI50: 11.6 µM
  TGI: 26.1 µM
PC-3 prostate
  GI50: 2.54 µM
  TGI: 12.5 µM
SR leukemia
  GI50: 3.11 µM
  TGI: 8.98 µM
U251 CNS
  GI50: 11 µM
  TGI: 23.8 µM
SK-MEL-2 melanoma
  GI50: 11.6 µM
  TGI: 33.7 µM
SK-OV-3 ovarian
  GI50: 18.2 µM
  TGI: 32.1 µM
NCI-H460 lung
  GI50: 31.3 µM
  TGI: > 100 µM
LOX IMVI melanoma
  GI50: 1.75 µM
  TGI: 3.92 µM
